Test [1] has as its target T1, poly(ADP-ribose) polymerase 1 (PARP1) (Homo sapiens, UniProt P09874).
T1 construct: made in house; host or cells: insect cells (baculovirus expression system)
In words: PARP1 auto-poly(ADP-ribosyl)ation with [32P]-NAD+. The format is biochemical. The note with it: compound 500 μM, PARP1 200 nM, 0.3 mM [32P]-NAD+, 2 min, 37 °C; mean ± SD; read-out: PARP1 % of residual activity (500 μM). The text has this:
(§1) Recombinant human proteins tyrosyl-DNA phosphodiesterase 1 (TDP1) and tyrosyl-DNA phosphodiesterase 2 (TDP2) were expressed in the E. coli system, poly(ADP-ribose) polymerase 1 (PARP1) and poly(ADP-ribose) polymerase 2 (PARP2) were expressed in insect cells using a baculovirus expression system and purified as described in (Sukhanova et al., 2004; Sherstyuk et al., 2019; Dyrkheeva et al., 2020, 2021).
(§2) Determination of PARP1 and PARP2 activity. For determination of PARP1 and PARP2 enzyme activity in the presence and absence of test compounds, radiolabeled [32P]-NAD⁺ was synthesized from α-[32P]-ATP according to the protocol (Sherstyuk et al., 2019). The auto-poly(ADPribosyl) ation reaction was performed in buffer for PARP1: 50 mM Tris-HCl, pH 8.0, 10 mM MgCl2, 150 mM NaCl, and 7 mM β-mercaptoethanol, as well as 2 A260 units/ml activated DNA, 0.3 mM [32P]-NAD⁺ at 37 °C. The reaction was initiated by addition of PARP1 to 200 nM and carried out for 2 min
(§3) The buffer for PARP2 contained: 50 mM Tris-HCl, pH 8.0, 3 mM spermine, 150 mM NaCl, and 7 mM β-mercaptoethanol, 2 A260 units/ml activated DNA, 0.6 mM [32P]-NAD⁺ at 37 °C. The reaction was initiated by addition of PARP2 to 600 nM, and the reaction mixtures were incubated for 5 min. The reaction was stopped by placing 5 μl aliquots on Whatman 1 paper filters impregnated with 5 % trichloroacetic acid (TCA). The filters were washed with 5 % TCA four times and air-dried after removal of TCA with 90 % ethanol. The incorporation of the radioactive label into the reaction product was calculated using a Typhoon FLA 9500 scanner (GE Healthcare, Chicago, Illinois, USA). At least three independent experiments were performed.

Test [2] deals with T2, tyrosyl-DNA phosphodiesterase 2 (TDP2) (Homo sapiens, UniProt O95551).
T2 construct: made in house; host or cells: E. coli
T2 sequence (O95551 1-362): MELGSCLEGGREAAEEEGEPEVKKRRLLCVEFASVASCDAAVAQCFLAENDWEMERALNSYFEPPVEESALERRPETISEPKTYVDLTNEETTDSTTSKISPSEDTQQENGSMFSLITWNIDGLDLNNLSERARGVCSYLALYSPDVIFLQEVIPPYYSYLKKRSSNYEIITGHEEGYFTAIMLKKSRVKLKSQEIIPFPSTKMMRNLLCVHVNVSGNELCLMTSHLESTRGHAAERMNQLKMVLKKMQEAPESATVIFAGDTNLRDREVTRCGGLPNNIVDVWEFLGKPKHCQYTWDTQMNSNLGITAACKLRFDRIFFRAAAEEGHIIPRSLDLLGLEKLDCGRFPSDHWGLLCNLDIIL
In words: TDP2 activity, removal of 5′-tyrosine from oligonucleotide substrate, denaturing PAGE. The format is biochemical. The note with it: inhibitor 500 μM, TDP2 200 nM, substrate 100 nM, 10 min, 37 °C; mean ± SD; read-out: TDP2 % of residual activity (500 μM).
Source text: as §1
Determination of TDP2 activity. For determination of TDP2 enzyme activity, an oligonucleotide 5′-tyrosine-AAC GTC AGG GTC TTC C-FAM-3′ containing a 6-FAM label at the 3′-end and an L-tyrosine residue attached via the phenolic OH group to the 5′-terminal phosphate was used as substrate, synthesized at the Russian-French-Japanese Laboratory of Bionanotechnology of Novosibirsk State University as described in (Dyrkheeva et al., 2021). The substrate at a concentration of 100 nM was incubated with TDP2 at a concentration of 200 nM in the absence or presence of inhibitor (500 μM) for 10 min at 37 °C in buffer containing 50 mM Tris-HCl, pH 8.0, 50 mM NaCl, 7 mM β-mercaptoethanol (Dyrkheeva et al., 2021). The reaction was stopped by addition of PAGE loading buffer (TBE, 10 % formamide, 7 M urea, 20 mM EDTA, 0.1 % xylene cyanol, and 0.1 % bromophenol blue). The samples were then heated at 90 °C for 5 min. The enzymatic reaction products were separated by electrophoresis in 20 % denaturing PAGE with 7 M urea at an acrylamide to bisacrylamide ratio of 19:1. A high-resolution Typhoon FLA 9500 laser scanner (GE Healthcare, Chicago, Illinois, USA) was used for gel scanning and visualization, and the data were analyzed using QuantityOne 4.6.7 software (Bio- Rad Laboratories, Inc., Hercules, California, USA). At least three independent experiments were performed, and statistical processing was carried out using OriginPro 8.6.0 (OriginLab, Northampton, Massachusetts, USA).
To study the effect of the studied compounds on TDP2 activity, we tested the ability of this enzyme to remove the tyrosine residue from the 5′-end of the oligonucleotide substrate in the absence and presence of inhibitors, as described in (Dyrkheeva et al., 2021).

Test [3] has as its system poly(ADP-ribose) polymerase 2 (PARP2). In words: PARP2 auto-poly(ADP-ribosyl)ation with [32P]-NAD+. In kind it is biochemical, human. The note with it: compound 500 μM, PARP2 600 nM, 0.6 mM [32P]-NAD+, 5 min, 37 °C; mean ± SD.
Source text: as §1, §2, §3

Test [4] addresses T3, tyrosyl-DNA phosphodiesterase 1 (TDP1) (Homo sapiens, UniProt Q9NUW8).
T3 construct: made in house; host or cells: E. coli
In words: Real-time fluorescent detection of TDP1 activity (BHQ1 cleavage from 3′-end of single-stranded FAM oligonucleotide). In kind it is biochemical. As to conditions: recombinant TDP1 1.5 nM, 50 nM single-stranded oligonucleotide, 26 °C; mean ± SD, at least three replicates. The method, then:
as §1
Determination of TDP1 activity. The reaction mixture (200 μl) for real-time fluorescent detection of TDP1 enzyme activity (Zakharenko et al., 2015) contained TDP1 reaction buffer (50 mM Tris-HCl, pH 8.0, 50 mM NaCl, and 7 mM β-mercaptoethanol), 50 nM oligonucleotide 5′-FAM-AAC GTC AGG GTC TTC C-BHQ1-3′, the test compound at various concentrations, and TDP1 at a final concentration of 1.5 nM. The reaction mixtures were incubated at a constant temperature of 26 °C in a POLARstar OPTIMA microplate fluorometer (BMG LABTECH, GmbH, Ortenberg, Germany). Fluorescence intensity (Ex485/Em520 nm) was measured every minute for 10 min. Mean values of half-maximal inhibitory concentration (IC50 – the concentration of the compound that inhibited 50 % of enzyme activity compared to the untreated control well containing only enzyme and substrate) were determined using a dose-response curve of the fluorescence signal level versus inhibitor concentration and calculated using MARS Data Analysis 2.0 (BMG LABTECH). Kinetic curves were obtained in at least three independent experiments and statistically processed in OriginPro 8.6.0 (OriginLab, Northampton, Massachusetts, USA).
The third group of compounds includes derivatives of the monomeric compound MB2Py(Ac), which is an isosteric analog of MB3, due to the fact that the pyrrolecarboxamide fragment contained in its structure can act as a hydrogen atom donor at the carboxamide nitrogen for hydrogen bond formation, in a position analogous to benzimidazole. Dimeric derivatives are represented by the DB2Py(n) series containing n-alkyldicarboxylic acids as a linker. This series is represented by a set of compounds containing 1, 3, 4, 5, 7, 9, and 11 methylene units, which allowed for a more accurate assessment of the dependence of the inhibitory activity of compounds on spacer length. The DB2Py(n) series differs from the DB3(n) series by the presence, in addition to the bisbenzimidazole structure, of a pyrrolecarboxamide structure, which is a fragment of the AT-specific antibiotic netropsin.Using the real-time fluorescence analysis method, halfmaximal inhibitory concentration (IC50) values of the studied compounds (see the Table) were obtained in the reaction of BHQ1 cleavage from the 3′-end of the oligonucleotide by TDP1, which led to an increase in FAM fluorescence at the 5′-end of the chain (Zakharenko et al., 2015). It should also be noted that a single-stranded oligonucleotide was used as substrate to exclude the binding of dimeric bisbenzimidazoles as minor-groove ligands to the DNA substrate and direct their action toward the enzymatic target.

T1 sequence (P09874 whole entry): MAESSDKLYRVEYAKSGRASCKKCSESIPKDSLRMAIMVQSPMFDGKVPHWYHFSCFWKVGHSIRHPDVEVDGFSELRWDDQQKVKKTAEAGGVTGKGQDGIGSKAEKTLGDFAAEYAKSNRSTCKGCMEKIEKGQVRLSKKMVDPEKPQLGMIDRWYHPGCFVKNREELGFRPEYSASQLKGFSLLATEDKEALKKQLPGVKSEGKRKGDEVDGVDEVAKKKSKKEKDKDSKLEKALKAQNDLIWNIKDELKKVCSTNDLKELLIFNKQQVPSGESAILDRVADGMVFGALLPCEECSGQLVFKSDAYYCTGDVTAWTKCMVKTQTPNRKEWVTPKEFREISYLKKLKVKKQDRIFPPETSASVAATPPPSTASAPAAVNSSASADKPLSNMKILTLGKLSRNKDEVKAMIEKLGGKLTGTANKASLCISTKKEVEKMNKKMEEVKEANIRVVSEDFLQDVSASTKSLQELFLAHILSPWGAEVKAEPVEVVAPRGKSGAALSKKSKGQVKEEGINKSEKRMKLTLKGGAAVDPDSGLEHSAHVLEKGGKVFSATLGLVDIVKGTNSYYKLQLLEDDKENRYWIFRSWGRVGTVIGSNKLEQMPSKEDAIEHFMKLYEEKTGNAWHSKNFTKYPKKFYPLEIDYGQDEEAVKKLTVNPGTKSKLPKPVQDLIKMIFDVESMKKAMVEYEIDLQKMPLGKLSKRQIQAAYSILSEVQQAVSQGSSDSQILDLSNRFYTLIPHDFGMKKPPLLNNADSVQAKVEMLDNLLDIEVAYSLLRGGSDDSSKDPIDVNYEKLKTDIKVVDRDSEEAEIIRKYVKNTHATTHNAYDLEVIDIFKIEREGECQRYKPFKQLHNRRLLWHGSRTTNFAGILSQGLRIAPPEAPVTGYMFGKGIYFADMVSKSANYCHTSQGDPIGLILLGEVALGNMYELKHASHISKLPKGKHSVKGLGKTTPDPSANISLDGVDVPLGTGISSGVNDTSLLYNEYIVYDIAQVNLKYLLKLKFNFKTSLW
T3 sequence (Q9NUW8 whole entry): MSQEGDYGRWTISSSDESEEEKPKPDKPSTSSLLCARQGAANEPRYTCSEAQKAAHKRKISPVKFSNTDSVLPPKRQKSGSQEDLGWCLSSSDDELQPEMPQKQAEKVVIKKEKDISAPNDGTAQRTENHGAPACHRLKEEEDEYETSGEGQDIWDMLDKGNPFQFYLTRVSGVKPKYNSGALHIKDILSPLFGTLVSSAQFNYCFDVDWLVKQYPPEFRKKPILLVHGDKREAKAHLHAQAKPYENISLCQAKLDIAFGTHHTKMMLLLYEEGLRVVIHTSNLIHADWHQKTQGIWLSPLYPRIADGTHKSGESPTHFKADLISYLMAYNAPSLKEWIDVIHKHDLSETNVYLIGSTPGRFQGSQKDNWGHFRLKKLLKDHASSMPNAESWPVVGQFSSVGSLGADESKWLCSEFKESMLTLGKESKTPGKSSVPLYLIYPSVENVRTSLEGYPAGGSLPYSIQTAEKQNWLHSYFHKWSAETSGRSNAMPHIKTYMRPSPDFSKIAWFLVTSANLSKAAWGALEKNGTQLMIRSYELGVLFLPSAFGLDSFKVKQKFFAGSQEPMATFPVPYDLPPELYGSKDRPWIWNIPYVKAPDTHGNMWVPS

As for `CN1CCN(c2ccc3nc(-c4ccc5nc(-c6ccc7nc(CNC(=O)CC(=O)NCc8nc9ccc(-c%10nc%11ccc(-c%12nc%13ccc(N%14CCN(C)CC%14)cc%13[nH]%12)cc%11[nH]%10)cc9[nH]8)[nH]c7c6)[nH]c5c4)[nH]c3c2)CC1` [DB3(1)], the remaining activity at 500 µM came to 55 ± 13% in test [1] and 70 ± 6% in test [2]. Moreover, the “PARP2 % of residual activity (500 μM)” value in test [3] is ~ 100%. Besides, in test [4], the IC50 (in general, the concentration at which inhibition is half-maximal) is over 50000 nM.
As to `CN1CCN(c2ccc3nc(-c4ccc5nc(-c6ccc7nc(CNC(=O)CCCCCC(=O)NCc8nc9ccc(-c%10nc%11ccc(-c%12nc%13ccc(N%14CCN(C)CC%14)cc%13[nH]%12)cc%11[nH]%10)cc9[nH]8)[nH]c7c6)[nH]c5c4)[nH]c3c2)CC1` [DB3(5)], the figures for the remaining activity at 500 µM in test [1] and in test [2] were 62 ± 16% and 65 ± 10%, respectively. For the same compound, in test [3], the “PARP2 % of residual activity (500 μM)” value was ~ 100%. Further, the IC50 in test [4] is over 50000 nM.
The matching figures for `CN1CCN(c2ccc3nc(-c4ccc5nc(-c6ccc7nc(CNC(=O)CCCCCCCCCC(=O)NCc8nc9ccc(-c%10nc%11ccc(-c%12nc%13ccc(N%14CCN(C)CC%14)cc%13[nH]%12)cc%11[nH]%10)cc9[nH]8)[nH]c7c6)[nH]c5c4)[nH]c3c2)CC1` [DB3(9)]: about 100%, about 100%, ~ 100% and over 50000 nM.
Consider `CN1CCN(c2ccc3nc(-c4ccc5nc(-c6ccc7nc(CNC(=O)CN8CCN(CC(=O)NCc9nc%10ccc(-c%11nc%12ccc(-c%13nc%14ccc(N%15CCN(C)CC%15)cc%14[nH]%13)cc%12[nH]%11)cc%10[nH]9)CC8)[nH]c7c6)[nH]c5c4)[nH]c3c2)CC1` [DB3P(1)], for which the remaining activity at 500 µM in test [1] was 70 ± 12%; in test [2], about 100%. In addition, the “PARP2 % of residual activity (500 μM)” value in test [3] is on record as ~ 100%. In addition, the IC50 in test [4] was 100 ± 50 nM.
The corresponding values for `CN1CCN(c2ccc3nc(-c4ccc5nc(-c6ccc7nc(CNC(=O)CCN8CCN(CCC(=O)NCc9nc%10ccc(-c%11nc%12ccc(-c%13nc%14ccc(N%15CCN(C)CC%15)cc%14[nH]%13)cc%12[nH]%11)cc%10[nH]9)CC8)[nH]c7c6)[nH]c5c4)[nH]c3c2)CC1` [DB3P(2)] are 40 ± 5%, about 100%, ~ 100% and 110 ± 10 nM.
Consider `CN1CCN(c2ccc3nc(-c4ccc5nc(-c6ccc7nc(CNC(=O)CCCN8CCN(CCCC(=O)NCc9nc%10ccc(-c%11nc%12ccc(-c%13nc%14ccc(N%15CCN(C)CC%15)cc%14[nH]%13)cc%12[nH]%11)cc%10[nH]9)CC8)[nH]c7c6)[nH]c5c4)[nH]c3c2)CC1` [DB3P(3)], for which the remaining activity at 500 µM in test [1] was 47 ± 14%; in test [2], about 100%. Moreover, in test [3], the “PARP2 % of residual activity (500 μM)” value is ~ 100%. For the same compound, the IC50 in test [4] is 200 ± 50 nM.
For `CN1CCN(c2ccc3nc(-c4ccc5nc(-c6ccc7nc(CNC(=O)CCCCN8CCN(CCCCC(=O)NCc9nc%10ccc(-c%11nc%12ccc(-c%13nc%14ccc(N%15CCN(C)CC%15)cc%14[nH]%13)cc%12[nH]%11)cc%10[nH]9)CC8)[nH]c7c6)[nH]c5c4)[nH]c3c2)CC1` [DB3P(4)], the remaining activity at 500 µM in test [1] is 48 ± 15%; in test [2] it was about 100%. The “PARP2 % of residual activity (500 μM)” value in test [3] is listed as ~ 100%. For the same compound, the IC50 in test [4] was 150 ± 30 nM.
Consider `CC(=O)NCc1nc2ccc(-c3nc4ccc(N5CCN(C)CC5)cc4[nH]3)cc2[nH]1` [MB2(Ac)], for which the remaining activity at 500 µM in test [1] and in test [2] was about 100% in each case. Further, the “PARP2 % of residual activity (500 μM)” value in test [3] is ~ 100%. The IC50 in test [4] turned out to be 1500 ± 500 nM.
For `CCCn1cc(NC(C)=O)cc1-c1nc2ccc(-c3nc4ccc(N5CCN(C)CC5)cc4[nH]3)cc2[nH]1` [MB2Py(Ac)], the remaining activity at 500 µM in test [1] and in test [2] was about 100% throughout. In test [3], the “PARP2 % of residual activity (500 μM)” value is ~ 100%. Besides, in test [4], the IC50 is 5000 ± 2000 nM.
Regarding `CN1CCN(c2ccc3nc(-c4ccc5nc(CN)[nH]c5c4)[nH]c3c2)CC1` [MB2], the remaining activity at 500 µM in test [1] and in test [2] was about 100% throughout. For the same compound, the “PARP2 % of residual activity (500 μM)” value in test [3] is reported as ~ 100%. Further, the IC50 in test [4] turned out to be 2000 ± 1000 nM.
Turning to `CN1CCN(c2ccc3nc(-c4ccc5nc(-c6ccc7nc(CN)[nH]c7c6)[nH]c5c4)[nH]c3c2)CC1` [MB3], the remaining activity at 500 µM is 65 ± 15% in test [1] and about 100% in test [2]. The “PARP2 % of residual activity (500 μM)” value in test [3] is on record as ~ 100%. The IC50 in test [4] was determined as 700 ± 50 nM.

The values above are taken from publication PMC12799362, “The effect of dimeric bisbenzimidazoles on the activity of DNA repair enzymes TDP1, TDP2, PARP1 and PARP2” (Vavilov Journal of Genetics and Breeding, 2025).
